The values that follow come from patent publication US20100261719A1, “CHEMICAL COMPOUNDS” (priority 2007, published 2010).

≈ marks a conversion by molar mass, not a printed value.

The subject of test [1] is Sau516. As to the kind of experiment: Bacterial susceptibility testing (MIC), Sau516. The format is cell-based. Conditions: Staphylococcus aureus, liquid media, 37° C., 24 hours, lowest concentration reducing growth by 80% or more. An excerpt: (§1) Compounds may be tested for antimicrobial activity by susceptibility testing in liquid media in a 96 well format. Compounds may be dissolved in dimethylsulfoxide and tested in 10 doubling dilutions in the susceptibility assays. The organisms used in the assay may be grown overnight on suitable agar media and then suspended in a liquid medium appropriate for the growth of the organism. The suspension may be a 0.5 McFarland and a further 1 in 10 dilution may be advantageously made into the same liquid medium to prepare the final organism suspension in 100 μL. Plates may be incubated under appropriate conditions at 37° C. for 24 hours prior to reading. The Minimum Inhibitory Concentration (MIC) is intended to refer to the lowest drug concentration able to reduce growth by 80% or more.
(§2) Compounds may be evaluated against organisms such as Gram-positive species, including Staphylococcus aureus, Streptococcus pneumoniae, and Streptococcus pyogenes; and Gram-negative species including Haemophilus influenzae, and Moraxella catarrhalis.

Test [2] relates to Sau517. The test is described as follows: Bacterial susceptibility testing (MIC), Sau517. The format is cell-based. The settings on record: Staphylococcus aureus, liquid media, 37° C., 24 hours, lowest concentration reducing growth by 80% or more.
Excerpt: as §1, §2

Test [3] has as its system Spy838. As to the kind of experiment: Bacterial susceptibility testing (MIC), Spy838. The format is cell-based. The settings on record: Streptococcus pyogenes, liquid media, 37° C., 24 hours, lowest concentration reducing growth by 80% or more.
Excerpt: as §1, §2

Test [4] has as its system Spn548. As to the kind of experiment: Bacterial susceptibility testing (MIC), Spn548. The format is cell-based. Conditions: Streptococcus pneumoniae, liquid media, 37° C., 24 hours, lowest concentration reducing growth by 80% or more.
Excerpt: as §1, §2

In test [5] the test system is Spn538. The test is described as follows: Bacterial susceptibility testing (MIC), Spn538. The class given is cell-based. Conditions: Streptococcus pneumoniae, liquid media, 37° C., 24 hours, lowest concentration reducing growth by 80% or more.
Excerpt: as §1, §2

In test [6] the test system is Hin446. The test is described as follows: Bacterial susceptibility testing (MIC), Hin446. The format is cell-based. Conditions: Haemophilus influenzae, liquid media, 37° C., 24 hours, lowest concentration reducing growth by 80% or more.
Excerpt: as §1, §2

Test [7] has as its system Hin737. As to the kind of experiment: Bacterial susceptibility testing (MIC), Hin737. The class given is cell-based. The settings on record: Haemophilus influenzae, liquid media, 37° C., 24 hours, lowest concentration reducing growth by 80% or more.
Excerpt: as §1, §2

In test [8] the test system is Hin158. As to the kind of experiment: Bacterial susceptibility testing (MIC), Hin158. Conditions: Haemophilus influenzae, liquid media, 37° C., 24 hours, lowest concentration reducing growth by 80% or more. The format is cell-based.
Excerpt: as §1, §2

Test [9] relates to Mca445. As to the kind of experiment: Bacterial susceptibility testing (MIC), Mca445. The format is cell-based. Conditions: Moraxella catarrhalis, liquid media, 37° C., 24 hours, lowest concentration reducing growth by 80% or more.
Excerpt: as §1, §2

In test [10] the target is Escherichia coli DNA gyrase A/B tetramer (Escherichia coli, UniProt P0AES4+P0AES6). As to the kind of experiment: DNA gyrase supercoiling activity fluorescence polarisation assay. The class given is biochemical. The method, boiled down: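 5 nM gyrase supercoils 130 μg/ml relaxed triplex-sequence plasmid with 0.3 mM ATP in Tris pH 7.5/KCl/MgCl2/spermidine buffer, 0.8% DMSO, ~30 min at ambient temperature, 5-10 compound concentrations. Quenched with 40 nM BODIPY-FL triplex probe at pH 3.5; anisotropy read after 60 min (485/535 nm). IC50 by nonlinear regression against no-compound and 5 uM ciprofloxacin controls.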
Chain of Escherichia coli DNA gyrase A/B tetramer (P0AES4 whole entry, one chain of several): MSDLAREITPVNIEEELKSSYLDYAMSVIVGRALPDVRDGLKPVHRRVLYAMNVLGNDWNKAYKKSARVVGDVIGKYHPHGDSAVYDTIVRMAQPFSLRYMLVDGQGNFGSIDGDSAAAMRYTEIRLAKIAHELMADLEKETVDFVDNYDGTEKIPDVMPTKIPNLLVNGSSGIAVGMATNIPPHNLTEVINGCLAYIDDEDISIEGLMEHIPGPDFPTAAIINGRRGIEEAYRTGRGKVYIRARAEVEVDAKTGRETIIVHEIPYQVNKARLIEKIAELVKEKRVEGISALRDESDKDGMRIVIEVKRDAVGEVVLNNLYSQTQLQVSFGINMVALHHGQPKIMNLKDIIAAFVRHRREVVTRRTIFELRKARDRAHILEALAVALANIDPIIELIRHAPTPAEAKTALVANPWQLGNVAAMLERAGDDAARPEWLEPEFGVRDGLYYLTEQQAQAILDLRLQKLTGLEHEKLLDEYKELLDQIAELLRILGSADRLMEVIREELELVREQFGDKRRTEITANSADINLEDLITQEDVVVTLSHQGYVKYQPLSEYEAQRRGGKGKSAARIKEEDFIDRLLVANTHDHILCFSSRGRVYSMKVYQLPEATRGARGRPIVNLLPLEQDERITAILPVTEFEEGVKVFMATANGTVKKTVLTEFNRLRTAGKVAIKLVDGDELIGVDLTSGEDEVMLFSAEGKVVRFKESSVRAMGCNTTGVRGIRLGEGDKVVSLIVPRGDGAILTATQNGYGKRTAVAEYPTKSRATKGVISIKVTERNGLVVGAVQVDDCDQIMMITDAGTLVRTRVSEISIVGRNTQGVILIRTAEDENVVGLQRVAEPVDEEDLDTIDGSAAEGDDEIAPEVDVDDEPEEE

As usually defined, the IC50 is the concentration needed to halve the response being measured. Higher therefore signals a need for much substance. As for `C[C@@H]1CN2c3ccc(C#C[Si](C)(C)C)cc3CC3(C(=O)NC(=O)NC3=O)[C@H]2[C@H](C)O1` (racemic) [Example 1, (2R,4S,4aS)-rel-2,4-Dimethyl-8-((trimethylsilypethynyl)-2,4,4a,6-tetrahydro-1H,1′H-spiro[[1,4]oxazino[4,3-a]quinoline-5,5′-pyrimidine]-2′,4′,6′(3′H)-trion], the MIC came to 8 µg/mL (≈ 18.8 µM) in test [1]; 8 µg/mL (≈ 18.8 µM) in [2]; 16 µg/mL (≈ 37.6 µM) in [3]; 16 µg/mL (≈ 37.6 µM) in test [4]; 32 µg/mL (≈ 75.2 µM) in test [5]; 4 µg/mL (≈ 9.4 µM) in test [6]. Also, the figures for the MIC in [7], in test [8] and in [9] were 16 µg/mL (≈ 37.6 µM), 0.13 µg/mL (≈ 0.305 µM) and 2 µg/mL (≈ 4.7 µM), respectively. This molecule also returned an IC50 in test [10] of 7.57 µM.
